Where two headings read alike, the source gives them in different places.
Experiments:
[1] = tested on: 3T3-L1 cells; experiment: Fluorescent fatty acid uptake by 3T3-L1 cells, 96-well format; assay type: cell-based; details: for Uptake by 3T3-L1 cells, Day 9 / Uptake by 3T3-L1 cells, Day 0: 10 μM dye, one hour, means ± SEM; for Uptake by 3T3-L1 cells, Day 9: cells 9 days in differentiation medium; for Uptake by 3T3-L1 cells, Day 0: cells not incubated in differentiation medium; for Fatty acid uptake, Fluor. Units: dye 120 minutes
Description: To establish a rapid, 96 well format, automated assay of fatty acid uptake, the reproducibility and signal-to-noise ratios of four different fatty acid-fluorescent dye conjugates in undifferentiated and differentiated preadipocytes was determined. 3T3-L1 cells were used to compare the fluorescent dyes, the best of which was then selected for the human preadipocyte system. The fluorescent fatty acids tested were
These fatty acid-dye conjugates were chosen because their final size is close to that of physiologically relevant C:18 fatty acids, the most abundant in human fat cells and in the diet (Kokatnur, M., et al.(1979) Am. J. Clin. Nutr. 32:2198-205; Llado, I., et al. (1996) Biochem. Mol. Biol. Int. 40:295-303)). Furthermore, these dyes are vital, allowing the cells to be re-used in additional assays. 3T3-L1 cells were seeded in the wells of a 96-well plate at a density of 3.3×10^3 cells/cm^2 (1×10^3 cells/well). After reaching confluence, cells were exposed to differentiation medium for 0 and 9 days. The wells were washed with assay buffer (150 mM […], 10 mM NaPO4; 3 mM KCl; 10 μM CaCl2; 1 mM MgCl2; 25 mM glucose; pH 7.4) containing 20 μM fatty acid-free BSA, pre-warmed to 37° C. The fluorescent fatty acids were added in assay buffer to a final concentration of 10 μM, and incubated at 37° C. for one hour. Wells were washed with assay buffer containing 0.1% BSA.
Table 15 indicates the results of experiments in which 3T3-L1 cells were exposed to a differentiation inducing medium from day 0. Fatty acid uptake was assayed by exposing cells to BODPY for 120 minutes at each of the times represented.

[2] = tested on: 3T3-L1 cells; experiment: as above; assay type: cell-based; details: for BODIPY uptake, Day 0 / BODIPY uptake, Day 8: 10 μM
[3] = tested on: human preadipocytes; experiment: Fatty acid uptake by human preadipocytes exposed to differentiation medium (fatty acid-based cellulomic assay); assay type: cell-based; details: 10 d, relative to control medium, means of 4 studies
Description: The following example describes the optimization of methods used to differentiate human preadipocytes. The example details a thorough analyses of known and potential agents and conditions for promoting human preadipocyte differentiation. Experiments were performed with abdominal subcutaneous as well as mesenteric and omental preadipocytes. A variety of conditions were tested using the fatty acid-based cellulomic assay described in Example 4. Optimization of differentiation conditions enhances the usefulness of human preadipocytes in screening for modulators (e.g., inhibitors) of obesity.
(§1) The fatty acid uptake ratio was expressed as a function of fatty acid uptake in control medium. % Diff. represents the proportion of cells that developed doubly refractile lipid droplets visible by phase contrast microscopy by observers unaware of culture conditions. Means of 4 studies are shown. CoV was also determined (not shown) to monitor assay reliability.

[4] = tested on: human preadipocytes; experiment: Extent of differentiation: % cells with doubly refractile lipid droplets by phase contrast microscopy; assay type: cell-based; details: 10 d
Description: as §1

[5] = tested on: human subcutaneous adipocytes; details: positive control
Description: (§2) Cells are 10 thawed in PM and grown in tissue culture flasks under standard incubation conditions (5% carbon dioxide, 37° C.). Cells are passaged 1:2 upon 80-100% confluency. Cells are passaged up to ten times to produce enough cells for primary screening. • C. Cells are seeded and differentiated, as described in the previous section, in 384-well plates. • D. On day 6 of preadipocyte differentiation, the DM is first changed as described in the previous section. Cells are then incubated in a replicate manner (i.e., in triplicate) with compounds. […] Compounds are further diluted in a PBS or similarly buffered solution in the absence or presence of albumin to aid compound solubility. […] Positive control cells are treated with a compound or reagent known to modulate their ability to take up and/or accumulate fatty acids. […] The FA* currently used is 4,4-difluoro-5-methyl-4-bora-3a,4a-diaza-s-indacene-3-dodecanoic acid (C1-BODIPY® 500/510 C12, catalog # D-3823, Molecular Probes, Eugene, Oreg.). […] Cells are incubated for four hours at 5% carbon dioxide/37° C., then post-washed with FAB, preferably three times, to remove unincorporated FA*. Cellular fluorescence of triglyceride droplets that have incorporated FA* is measured on a microplate reader. Efficacy of compounds on inhibiting FA* accumulation is determined by: % Efficacy=100−(sample fluorescence/negative control fluorescence×100). • H. Subsequent determination of compound toxicity on cells is measured by incubating cells (after the post-wash and FA* reading) with an aliquot of Alamar Blue (catalog # DAL-1100, BioSource International), a fluorescent dye that is reduced via cellular metabolism. After incubation of cells with the dye for up to four hours, fluorescence of the reduced compound is read. Alternatively, compound toxicity on cells can be determined in an experiment separate from the primary screen uptake/accumulation assay. Toxicity of compounds is determined by: % Toxicity =100−(sample fluorescence/negative control fluorescence×100).
(§3) Primary screens for inhibition of fatty acid uptake are carried out using human subcutaneous preadipocytes in each of two assay formats. In a first assay format, cells are exposed to natural product and synthetic library components early in the differentiation process (days 1-3 following addition of differentiation medium). In a second assay format, cells are exposed to library components late in the process (days 7-10 following addition of differentiation medium), after at least 80% of cells have differentiated.
(§4) Subcutaneous human preadipocytes (passage 3-5) are seeded in plating medium at 3.0×10^4 cells/cm^2 in 96-well or 384-well plates, giving 100% confluence upon adherence. […]

[6] = tested on: differentiating adipocytes
Description: The assay features differentiated human preadipocytes, but the procedure can be modified in a number of ways to discover novel compounds affecting the adipocytes of human and other species (i.e., rodent). For example, the day of compound addition during preadipocyte differentiation process can be changed as well as the incubation period. Similarly, the day of FA* addition, its type of fluorescent label and chain length, and its concentration and incubation time can be modified. • B. Up to five cell strains of frozen primary human subcutaneous preadipocytes (e.g., subcutaneous preadipocytes) are used, but this number can be increased as needed. Omental and mesenteric preadipocytes can be used in a similar manner. Cells are 10 thawed in PM and grown in tissue culture flasks under standard incubation conditions (5% carbon dioxide, 37° C.). Cells are passaged 1:2 upon 80-100% confluency. Cells are passaged up to ten times to produce enough cells for primary screening. • C. […] Cellular fluorescence of triglyceride droplets that have incorporated FA* is measured on a microplate reader. Efficacy of compounds on inhibiting FA* accumulation is determined by: % Efficacy=100−(sample fluorescence/negative control fluorescence×100). • H. Subsequent determination of compound toxicity on cells is measured by incubating cells (after the post-wash and FA* reading) with an aliquot of Alamar Blue (catalog # DAL-1100, BioSource International), a fluorescent dye that is reduced via cellular metabolism. After incubation of cells with the dye for up to four hours, fluorescence of the reduced compound is read. Alternatively, compound toxicity on cells can be determined in an experiment separate from the primary screen uptake/accumulation assay. Toxicity of compounds is determined by: % Toxicity =100−(sample fluorescence/negative control fluorescence×100).
Subsequent determination of compound toxicity is measured by incubating cells with one tenth of total cell volume of Alamar Blue (an indicator of cellular metabolism) for up to four hours before measuring fluorescence of the reduced compound. […]

[7] = tested on: human subcutaneous adipocytes; experiment: cells; details: Adipocyte, read-out: % Efficacy (inhibition of FA* accumulation)
Description: as §2, §3, §4

[8] = Dex 10^−4 M in suboptimal differentiation medium
[9] = Dex 10^−7 M in suboptimal differentiation medium
[10] = Dex 10^−10 M in suboptimal differentiation medium

CCCCCCC(C/C=C\CCCCCCCC(=O)O)OC(=O)c1c2ccccc2cc2ccccc12 (stereo not drawn) [12-AO, 12-(9-anthroyloxy) oleic acid]
Uptake by 3T3-L1 cells, Day 9 [1]: 10960 ± 1172 Raw Fluorescent Units | Uptake by 3T3-L1 cells, Day 0 [1]: 3613 ± 160 Raw Fluorescent Units

O=C(O)CCCCCCCCCCCCCCCOC(=O)c1c2ccccc2cc2ccccc12 [16-AP, 16-(9-anthroyloxy) palmitic acid]
Uptake by 3T3-L1 cells, Day 9 [1]: 8528 ± 20 Raw Fluorescent Units | Uptake by 3T3-L1 cells, Day 0 [1]: 2944 ± 404 Raw Fluorescent Units

CC1=[N+]2C(=Cc3ccc(CCCCCCCCCCCC(=O)O)n3[B-]2(F)F)C=C1 [BODIPY 500/510 C12, 4,4-difluoro-5-methyl-4-bora-3a,4a-diaza-s-indacene-3-dodecanoic acid]
BODIPY uptake, Day 0 ([2]; incubation 10 min): 1290.263 rfu | BODIPY uptake, Day 8 ([2]; incubation 10 min): 1198.325 rfu | BODIPY uptake, Day 0 ([2]; incubation 30 min): 510.3125 rfu | BODIPY uptake, Day 8 ([2]; incubation 30 min): 18518.67 rfu | BODIPY uptake, Day 0 ([2]; incubation 120 min): 686.9375 rfu | BODIPY uptake, Day 8 ([2]; incubation 120 min): 46363 rfu | BODIPY uptake, Day 0 ([2]; incubation 240 min): 1104.125 rfu | BODIPY uptake, Day 8 ([2]; incubation 240 min): 49153.33 rfu | Fatty acid uptake, Fluor. Units ([2]; Day 8 in differentiation inducing medium, dye 120 minutes): 18685 Fluor. Units | Uptake by 3T3-L1 cells, Day 9 [1]: 56869 ± 2093 Raw Fluorescent Units | Uptake by 3T3-L1 cells, Day 0 [1]: 404 ± 21 Raw Fluorescent Units | Fatty acid uptake, Fluor. Units ([1]; Day 0 in differentiation inducing medium): 1166.67 Fluor. Units | Fatty acid uptake, Fluor. Units ([1]; Day 2 in differentiation inducing medium): 5006.75 Fluor. Units | Fatty acid uptake, Fluor. Units ([1]; Day 4 in differentiation inducing medium): 10884.5 Fluor. Units | Fatty acid uptake, Fluor. Units ([1]; Day 6 in differentiation inducing medium): 15441.8 Fluor. Units | Fatty acid uptake, Fluor. Units ([1]; Day 10 in differentiation inducing medium): 31645.8 Fluor. Units | Fatty acid uptake, Fluor. Units ([1]; Day 12 in differentiation inducing medium): 37910 Fluor. Units

O=C([O-])CCCCCCCCCCCc1ccc2n1[B-](F)(F)[N+]1=C(c3cccs3)C=CC1=C2.[H+] [BODIPY 558/568 C12, 4,4-difluoro-5-(2-thienyl) 1-4-bora-3a,4a-diaza-s-indacene-3-dodecanoic acid]
Uptake by 3T3-L1 cells, Day 9 [1]: 3622 ± 641 Raw Fluorescent Units | Uptake by 3T3-L1 cells, Day 0 [1]: 116 ± 9 Raw Fluorescent Units

C[C@@H]1C[C@H]2[C@@H]3CCC4=CC(=O)C=C[C@]4(C)[C@@]3(F)[C@@H](O)C[C@]2(C)[C@@]1(O)C(=O)CO [Dex, dexamethasone]
Uptake Ratio [3, 8]: 5 | Uptake Ratio [3, 9]: 79 | Uptake Ratio [3, 10]: 49 | % Diff. [4, 8]: 30% | % Diff. [4, 9]: 70% | % Diff. [4, 10]: 60%

N#CC(C#N)=NNc1ccc(OC(F)(F)F)cc1 [FCCP, carbonyl cyanide p-(trifluoromethoxy)-phenylhydrazone]
FA* uptake and/or accumulation [5]: inhibits FA* uptake and/or accumulation in a dose-responsive manner | % Toxicity ([6]; 0.3 μM): −1% | % Toxicity ([6]; 1 μM): −4% | % Toxicity ([6]; 3 μM): 5% | Emax at 0.3 µM [7]: 42% | Emax at 1 µM [7]: 79% | Emax at 3 µM [7]: 90%

From patent US20050233403A1, “Human adipocyte cell populations and methods for identifying modulators of same” (AdipoGenix, Inc., priority 2002, published 2005)
